Laboratory results from paper PMC7648750, “In vitro and in vivo BNCT investigations using a carborane containing sulfonamide targeting CAIX epitopes on malignant pleural mesothelioma and breast cancer cells” (Scientific Reports, 2020).

Columns and labels:
MCF7 cells = assay: MTT cell vitality assay; type: cell-based, human; conditions: MCF7, 24 h, normoxia, Fig. 3
Method: (§1) The MTT assay is based on the reduction in the mitochondria of metabolically active cells by succinate dehydrogenase obtaining a precipitation of purple formazan crystal. The assay was carried out using the same protocol reported by Azzi et al[42]. Briefly, AB22, ZL34 and MCF7 cells were seeded at a density of 7 × 10^3, 5 × 10^3 and 1 × 10^4 cells per well, respectively, in a 96-well microtiter plate. After 24 h at 37 °C and 5% CO2, they were incubated with increasing concentration of CA-SF or AZ for 24 h in a condition of normoxia at 37 °C and 5% CO2 by adding stock solutions in dimethyl sulfoxide (DMSO). In all the conditions the concentration of DMSO during the cell incubation was maintained under 0.25% (v/v) in cell medium. After the incubation, the medium was removed and each well was incubated with thiazolyl blue tetrazolium bromide (Sigma) dissolved in the medium at a concentration of 0.45 mg/mL for 4 h at 37 °C and 5% CO2. Then, after medium elimination, 150 µL of DMSO were added into each well to solubilise the formazan salt crystals produced by the metabolism of live cells and the microplate was incubated at room temperature (RT) for 30 min. Finally, absorbance was measured at 570 nm using an iMark microplate reader (Biorad). Cell vitality was reported as the percentage of […] cells observed in the treated samples relative to that observed in the non-treated control cells.

ZL34 cells = assay: MTT cell vitality assay; type: cell-based, human; conditions: ZL34, 24 h, normoxia, Fig. 3
Method: as §1

AB22 cells = assay: MTT cell vitality assay; type: cell-based, mouse; conditions: AB22, 24 h, normoxia, Fig. 3
Method: as §1

[1] = clinical applications; no reference given; cited from earlier work

Molecule	percentage of viable cells with increasing concentration (MTT) (MCF7 cells)	percentage of viable cells with increasing concentration (MTT) (ZL34 cells)	percentage of viable cells with increasing concentration (MTT) (AB22 cells)	boron concentration ratio between tumour and normal tissues [1]
CC(=O)Nc1nnc(S(N)(=O)=O)s1 [AZ, 5-acetamido-1,3,4-thiadiazole-2-sulfonamide, reference compound]	negligible	negligible	negligible	–
N[C@@H](Cc1ccc(B(O)O)cc1)C(=O)O [BPA, L-para-boronphenylalanine]	–	–	–	3–5
sodium mercaptoundecaidro-closo-dodecaborate [BSH]	–	–	–	3–5
